18 compounds from patent EP4483954A1 (Masarykova Univerzita, priority 2023, dated 2025) can be followed below.

Type in all cases: biochemical
One assay addresses T1, DYRK2 (h) (Homo sapiens, UniProt Q92630).
T1 construct: purchased Eurofins (KinaseProfiler)
T1 sequence (Q92630 1-601): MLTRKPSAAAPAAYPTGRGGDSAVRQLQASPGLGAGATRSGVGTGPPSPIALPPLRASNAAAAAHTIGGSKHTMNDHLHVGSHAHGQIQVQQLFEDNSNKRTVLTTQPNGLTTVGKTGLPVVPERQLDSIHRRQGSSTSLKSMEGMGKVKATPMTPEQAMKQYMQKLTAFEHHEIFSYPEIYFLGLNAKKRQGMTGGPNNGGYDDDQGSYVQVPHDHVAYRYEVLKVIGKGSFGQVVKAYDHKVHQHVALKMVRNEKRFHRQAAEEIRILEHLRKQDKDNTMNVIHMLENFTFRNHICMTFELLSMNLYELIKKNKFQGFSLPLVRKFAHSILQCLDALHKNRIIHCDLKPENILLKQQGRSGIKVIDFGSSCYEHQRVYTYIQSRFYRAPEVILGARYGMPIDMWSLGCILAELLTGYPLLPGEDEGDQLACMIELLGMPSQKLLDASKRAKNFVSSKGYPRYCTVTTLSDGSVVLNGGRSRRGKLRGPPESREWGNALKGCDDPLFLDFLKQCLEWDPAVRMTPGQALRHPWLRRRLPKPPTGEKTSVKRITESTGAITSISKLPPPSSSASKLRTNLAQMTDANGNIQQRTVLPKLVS
Kind of assay: radiometric kinase assay (KinaseProfiler, Eurofins), DYRK2. The settings on record: in vitro radiometric kinase assay, tested at 1 nM to 10 000 nM, no pre-incubation; read-out: inhibitory activities (IC50 values) DYRK2. The protocol:
(§1) The compounds were profiled in the radiometric assays (KinaseProfiler, Eurofins).
(§2) All compounds were prepared to 50x final assay concentration in 100% DMSO. This working stock of the compound was added to the assay well as the first component in the reaction, followed by the remaining components as detailed in the general assay protocols below. There was no pre-incubation step between the compound and the kinase prior to initiation of the reaction.
DYRK2 (h) was incubated with 8 mM MOPS pH 7.0, 0.2 mM EDTA, 2 mg/mL casein, 10 mM magnesium acetate and γ-^33P-ATP (specific activity and concentration as required). The reaction was initiated by the addition of the Mg/ATP mix. After incubation for 40 minutes at room temperature, the reaction was stopped by the addition of phosphoric acid to a concentration of 0.5%. An aliquot of the reaction was then spotted onto a filter and washed four times for 4 minutes in 0.425% phosphoric acid and once in methanol prior to drying and scintillation counting.
(§3) Kinase activity data were expressed as the percent remaining kinase activity in tested samples compared to the vehicle (DMSO) reactions. The compounds were tested at the following concentrations: 1 nM, 3 nM, 10 nM, 30 nM, 100 nM, 300 nM, 1000 nM, 3000 nM, and 10 000 nM; IC50 values and curve fits were then obtained.

The next assay deals with T2, Haspin (h) (Homo sapiens, UniProt Q8TF76).
T2 construct: purchased Eurofins (KinaseProfiler)
T2 sequence (Q8TF76 1-798): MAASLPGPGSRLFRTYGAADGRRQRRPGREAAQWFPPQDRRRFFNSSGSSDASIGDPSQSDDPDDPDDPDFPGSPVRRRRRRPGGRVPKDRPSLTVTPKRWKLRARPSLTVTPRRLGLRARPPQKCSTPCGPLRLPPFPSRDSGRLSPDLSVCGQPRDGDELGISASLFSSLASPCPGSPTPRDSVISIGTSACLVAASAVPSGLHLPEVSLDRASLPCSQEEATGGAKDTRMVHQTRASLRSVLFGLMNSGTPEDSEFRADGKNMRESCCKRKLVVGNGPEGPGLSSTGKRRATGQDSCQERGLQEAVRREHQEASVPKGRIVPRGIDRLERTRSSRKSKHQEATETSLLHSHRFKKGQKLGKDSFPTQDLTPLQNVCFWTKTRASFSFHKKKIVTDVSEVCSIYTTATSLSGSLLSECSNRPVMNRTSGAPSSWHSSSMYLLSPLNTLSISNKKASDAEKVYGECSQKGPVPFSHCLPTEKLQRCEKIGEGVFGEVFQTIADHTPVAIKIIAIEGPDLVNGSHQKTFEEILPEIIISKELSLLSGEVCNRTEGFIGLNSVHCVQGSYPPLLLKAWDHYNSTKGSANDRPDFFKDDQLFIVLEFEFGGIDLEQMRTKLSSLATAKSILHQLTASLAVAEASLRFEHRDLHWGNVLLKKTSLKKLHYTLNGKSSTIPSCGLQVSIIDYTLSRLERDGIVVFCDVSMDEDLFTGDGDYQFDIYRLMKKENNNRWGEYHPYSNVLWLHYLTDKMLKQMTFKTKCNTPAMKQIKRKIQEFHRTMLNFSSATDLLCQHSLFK
As to the kind of experiment: radiometric kinase assay (KinaseProfiler, Eurofins), Haspin. The settings on record: in vitro radiometric kinase assay, tested at 1 nM to 10 000 nM, no pre-incubation; read-out: inhibitory activities (IC50 values) Haspin. Put shortly: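 Human Haspin in 8 mM MOPS pH 7.0 with 500 µM RARTLSFAEPG, 10 mM Mg acetate and γ-33P-ATP; compound added without preincubation. Reaction ran 40 min at room temperature, then filter-bound 33P was counted. Nine concentrations from 1 to 10 000 nM gave % remaining activity versus DMSO, and IC50 came from curve fit.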

The target in the next assay is T3, CDKL3(h) (Homo sapiens, UniProt Q8IVW4).
T3 construct: purchased Eurofins (KinaseProfiler)
T3 sequence (Q8IVW4 whole entry): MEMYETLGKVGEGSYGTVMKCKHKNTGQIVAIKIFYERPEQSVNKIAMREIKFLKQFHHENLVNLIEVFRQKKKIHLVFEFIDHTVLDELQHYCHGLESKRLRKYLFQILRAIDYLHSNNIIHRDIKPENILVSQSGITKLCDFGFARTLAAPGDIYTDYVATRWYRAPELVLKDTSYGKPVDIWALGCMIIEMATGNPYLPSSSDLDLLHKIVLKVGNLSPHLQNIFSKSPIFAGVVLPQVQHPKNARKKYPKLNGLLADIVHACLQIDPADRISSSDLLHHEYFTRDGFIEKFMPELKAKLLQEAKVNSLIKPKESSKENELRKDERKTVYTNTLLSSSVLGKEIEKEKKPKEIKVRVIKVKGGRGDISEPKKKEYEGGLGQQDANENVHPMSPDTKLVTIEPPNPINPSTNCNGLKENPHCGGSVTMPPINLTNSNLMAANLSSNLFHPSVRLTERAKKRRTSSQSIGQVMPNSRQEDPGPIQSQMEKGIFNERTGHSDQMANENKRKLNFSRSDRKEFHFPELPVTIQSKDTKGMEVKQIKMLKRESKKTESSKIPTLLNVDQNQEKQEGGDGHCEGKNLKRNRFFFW
Kind of assay: radiometric kinase assay (KinaseProfiler, Eurofins), CDKL3. The settings on record: in vitro radiometric kinase assay, tested at 1 nM to 10 000 nM, no pre-incubation; read-out: inhibitory activities (IC50 values) CDKL3. The protocol:
as §1
Briefly, kinases were diluted in the buffer shown below prior to addition to the reaction mix: • CDKL3, TAF1L: 20 mM Tris/HCl pH 8.5, 0.2 mM EDTA, 0.1% β-mercaptoethanol, 0.01% Brij-35, 5% glycerol, 1 mg/ml BSA; • Haspin: 15 mM MOPS, 0.75 mM EDTA, 0.0075% Brij-35, 3.75% Glycerol, 150 mM NaCl, 0.1% β-mercaptoethanol, 1 mg/mLBSA; • CDKL4, CLK2, PIM1, TRB2: […], 1 mM EDTA, 0.01% Brij-35, 5% Glycerol, 0.1% β-mercaptoethanol, 1 mg/mL BSA.
as §2
CDKL3(h) was incubated with 8 mM MOPS pH 7.0, 0.2 mM EDTA, 250 µM RRRFRPASPLRGPPK (SEQ ID NO. 1), 10 mM magnesium acetate and γ-^33P-ATP (specific activity and concentration as required). The reaction was initiated by the addition of the Mg/ATP mix. After incubation for 120 minutes at room temperature, the reaction was stopped by the addition of phosphoric acid to a concentration of 0.5%. An aliquot of the stopped reaction was spotted onto a filter and washed four times for 4 minutes in 0.425% phosphoric acid and once in methanol prior to drying and scintillation counting.
as §3

`Cn1cc(-c2ccc3scc(-c4cncs4)c3n2)cn1` [Preparative Example 69, 5-(1-methyl-1H-pyrazol-4-yl)-3-(thiazol-5-yl)thieno[3,2-b]pyridine]: the IC50 at DYRK2 (h) was in the range of 100 to 499 nM; at Haspin (h), 20 to 99 nM; on CDKL3(h), 100 to 499 nM.
Regarding `Cc1nsc(-c2csc3ccc(-c4cnn(C)c4)nc23)n1` [Preparative Example 71, 3-(3-methyl-1,2,4-thiadiazol-5-yl)-5-(1-methyl-1H-pyrazol-4-yl)thieno[3,2-b]pyridine], the IC50 fell in the range of 100 to 499 nM at DYRK2 (h), 20 to 99 nM at Haspin (h) and 100 to 499 nM at CDKL3(h).
In the case of `Cn1cc(-c2ccc3scc(C(=O)c4ccccc4)c3n2)cn1` [Preparative Example 73, (5-(1-methyl-1H-pyrazol-4-yl)thieno[3,2-b]pyridin-3-yl)(phenyl)-methanone], the IC50 on DYRK2 (h), at Haspin (h) and on CDKL3(h) was 3000 to 10000 nM throughout.
With `Cn1cc(-c2ccc3scc(C(O)c4ccccc4)c3n2)cn1` (stereo not drawn) [Preparative Example 74], the IC50 at DYRK2 (h) fell in the range of 3000 to 10000 nM; on Haspin (h), 3000 to 10000 nM; at CDKL3(h) it was 100 to 499 nM.
`Cn1cc(-c2ccc3scc(Nc4ccccc4)c3n2)cn1` [Preparative Example 76, 5-(1-methyl-1H-pyrazol-4-yl)-N-phenylthieno[3,2-b]pyridin-3-amine]: the values for the IC50 on DYRK2 (h), at Haspin (h) and on CDKL3(h) were 100 to 499 nM, 100 to 499 nM and 20 to 99 nM, respectively.
As to `CCn1cc(-c2ccc3scc(-c4ccncc4)c3n2)cn1` [Preparative Example 77, 5-(1-ethyl-1H-pyrazol-4-yl)-3-(pyridin-4-yl)thieno[3,2-b]pyridine], the IC50 on DYRK2 (h), at Haspin (h) and on CDKL3(h) was 500 to 3000 nM each time.
Turning to `FC(F)(F)n1cc(-c2ccc3scc(-c4ccncc4)c3n2)cn1` [Preparative Example 78, 3-(pyridin-4-yl)-5-(1-(trifluoromethyl)-1H-pyrazol-4-yl)thieno[3,2-b]pyridine], the IC50 lay within 3000 to 10000 nM at DYRK2 (h), 3000 to 10000 nM on Haspin (h) and 500 to 3000 nM on CDKL3(h).
Regarding `CC(C)n1cc(-c2ccc3scc(-c4ccncc4)c3n2)cn1` [Preparative Example 79, 5-(1-isopropyl-1H-pyrazol-4-yl)-3-(pyridin-4-yl)thieno[3,2-b]pyridine], the IC50 was in the range of 3000 to 10000 nM at DYRK2 (h), 500 to 3000 nM at Haspin (h) and 3000 to 10000 nM at CDKL3(h).
`c1ccc(Cn2cc(-c3ccc4scc(-c5ccncc5)c4n3)cn2)cc1` [Preparative Example 81, 5-(1-benzyl-1H-pyrazol-4-yl)-3-(pyridin-4-yl)thieno[3,2-b]pyridine]: the figures for the IC50 on DYRK2 (h), at Haspin (h) and at CDKL3(h) were 3000 to 10000 nM, 100 to 499 nM and 500 to 3000 nM, respectively.
As for `Cn1ncc(-c2ccc3scc(-c4ccncc4)c3n2)c1CC1CC1` [Preparative Example 82, 5-(5-(cyclopropylmethyl)-1-methyl-1H-pyrazol-4-yl)-3-(pyridin-4-yl)thieno[3,2-b]pyridine], the IC50 on DYRK2 (h) fell in the range of 3000 to 10000 nM; on Haspin (h), 100 to 499 nM; at CDKL3(h), 500 to 3000 nM.
`Cn1cc(-c2ccc3scc(-c4ccncc4)c3n2)c(NC(=O)OC(C)(C)C)n1` [Preparative Example 83, tert-butyl(1-methyl-4-(3-(pyridin-4-yl)thieno[3,2-b]pyridin-5-yl)-1H-pyrazol-3-yl)carbamate]: the IC50 at DYRK2 (h) fell in the range of 3000 to 10000 nM; at Haspin (h), 3000 to 10000 nM; at CDKL3(h), 500 to 3000 nM.
On to `Cn1cc(-c2ccc3scc(-c4ccncc4)c3n2)c(N)n1` [Preparative Example 84, 1-methyl-4-(3-(pyridin-4-yl)thieno[3,2-b]pyridin-5-yl)-1H-pyrazol-3-amine], for which the IC50 at DYRK2 (h) was in the range of 3000 to 10000 nM; at Haspin (h), 3000 to 10000 nM; at CDKL3(h) it was 500 to 3000 nM.
`Cc1nn(C)c(C)c1-c1ccc2scc(-c3ccncc3)c2n1` [Preparative Example 85, 3-(pyridin-4-yl)-5-(1,3,5-trimethyl-1H-pyrazol-4-yl)thieno[3,2-b]pyridine]: the IC50 was 3000 to 10000 nM at DYRK2 (h), 500 to 3000 nM at Haspin (h) and 500 to 3000 nM at CDKL3(h).
Regarding `Cn1ccc(-c2ccc3scc(-c4ccncc4)c3n2)n1` [Preparative Example 86, 5-(1-methyl-1H-pyrazol-3-yl)-3-(pyridin-4-yl)thieno[3,2-b]pyridine], the IC50 lay in the range of 3000 to 10000 nM on DYRK2 (h), 20 to 99 nM on Haspin (h) and 500 to 3000 nM on CDKL3(h).
For `Cn1nccc1-c1ccc2scc(-c3ccncc3)c2n1` [Preparative Example 90, 5-(1-methyl-1H-pyrazol-5-yl)-3-(pyridin-4-yl)thieno[3,2-b]pyridine], the results for the IC50 on DYRK2 (h), at Haspin (h) and on CDKL3(h) were 3000 to 10000 nM, 500 to 3000 nM and 500 to 3000 nM, respectively.
On to `Cn1cncc1-c1ccc2scc(-c3ccncc3)c2n1` [Preparative Example 91, 5-(1-methyl-1H-imidazol-5-yl)-3-(pyridin-4-yl)thieno[3,2-b]pyridine], for which the results for the IC50 on DYRK2 (h), on Haspin (h) and on CDKL3(h) were 500 to 3000 nM, 20 to 99 nM and 500 to 3000 nM, respectively.
With `Cn1cc(-c2ccc3scc(-c4ccncc4)c3n2)nn1` [Preparative Example 93, 5-(1-methyl-1H-1,2,3-triazol-4-yl)-3-(pyridin-4-yl)thieno[3,2-b]pyridine], the half-inhibitory concentration (IC50) was in the range of 3000 to 10000 nM on DYRK2 (h), 500 to 3000 nM on Haspin (h) and 3000 to 10000 nM on CDKL3(h).
Consider `Cn1ncc(-c2ccc3scc(-c4ccncc4)c3n2)n1` [Preparative Example 94, 5-(2-methyl-2H-1,2,3-triazol-4-yl)-3-(pyridin-4-yl)thieno[3,2-b]pyridine], for which the IC50 was in the range of 3000 to 10000 nM on DYRK2 (h), 500 to 3000 nM at Haspin (h) and 500 to 3000 nM on CDKL3(h).

By IC50 is commonly meant the concentration at which inhibition is half-maximal.
